In the supplement of paper PMC10307832:

Key:
Experiment in all cases: relative viability (nuclei count vs DMSO), 5 days (fraction); higher = more cells survive
Linsitinib + Phenformin = compound: C[C@]1(O)C[C@@H](c2nc(-c3ccc4ccc(-c5ccccc5)nc4c3)c3c(N)nccn32)C1 [Linsitinib] + N=C(N)NC(=N)NCCc1ccccc1 [Phenformin] (partner 250 µM)
Procedure, shortened: (§1)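 Five library-drug doses in √10 steps were combined with a fixed anchor-drug dose, or a single drug was given alone, by pin tool to lung cancer cell lines in 1536-well plates the day after seeding. Nuclei were stained and counted after 5 days. Relative viability is the nuclei count in treated wells over that in vehicle wells, taken as the median of duplicate plates.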

Linsitinib + Vorinostat = compound: C[C@]1(O)C[C@@H](c2nc(-c3ccc4ccc(-c5ccccc5)nc4c3)c3c(N)nccn32)C1 [Linsitinib] + O=C(CCCCCCC(=O)Nc1ccccc1)NO [Vorinostat] (partner 1 µM)
Procedure, shortened: as §1

Ispinesib + Luminespib = compound: Cc1ccc(C(=O)N(CCCN)[C@@H](c2nc3cc(Cl)ccc3c(=O)n2Cc2ccccc2)C(C)C)cc1 [Ispinesib] + CCNC(=O)c1noc(-c2cc(C(C)C)c(O)cc2O)c1-c1ccc(CN2CCOCC2)cc1 [Luminespib] (partner 0.01 µM)
Procedure, shortened: as §1

Ispinesib + Phenformin = compound: Cc1ccc(C(=O)N(CCCN)[C@@H](c2nc3cc(Cl)ccc3c(=O)n2Cc2ccccc2)C(C)C)cc1 [Ispinesib] + N=C(N)NC(=N)NCCc1ccccc1 [Phenformin] (partner 250 µM)
Procedure, shortened: as §1

Cell Line	relative viability (Linsitinib + Phenformin; first compound 0.01 µM)	relative viability (Linsitinib + Phenformin; first compound 0.03162 µM)	relative viability (Linsitinib + Phenformin; first compound 0.1 µM)	relative viability (Linsitinib + Phenformin; first compound 0.3162 µM)	relative viability (Linsitinib + Phenformin; first compound 1 µM)	relative viability (Linsitinib + Vorinostat; first compound 0.01 µM)	relative viability (Linsitinib + Vorinostat; first compound 0.03162 µM)	relative viability (Linsitinib + Vorinostat; first compound 0.1 µM)	relative viability (Linsitinib + Vorinostat; first compound 0.3162 µM)	relative viability (Linsitinib + Vorinostat; first compound 1 µM)	relative viability (Ispinesib + Luminespib; first compound 0.001 µM)	relative viability (Ispinesib + Luminespib; first compound 0.003162 µM)	relative viability (Ispinesib + Luminespib; first compound 0.01 µM)	relative viability (Ispinesib + Luminespib; first compound 0.03162 µM)	relative viability (Ispinesib + Luminespib; first compound 0.1 µM)	relative viability (Ispinesib + Phenformin; first compound 0.001 µM)	relative viability (Ispinesib + Phenformin; first compound 0.003162 µM)	relative viability (Ispinesib + Phenformin; first compound 0.01 µM)	relative viability (Ispinesib + Phenformin; first compound 0.03162 µM)	relative viability (Ispinesib + Phenformin; first compound 0.1 µM)
NCI-H2023	0.382	0.349	0.464	0.296	0.297	0.71	0.327	0.903	0.196	0.398	0.793	0.628	1.07	0.29	0.179	0.484	0.479	0.384	0.187	0.154
NCI-H522	0.589	0.662	0.567	–	0.613	0.892	1	0.791	0.499	0.727	1.02	1.1	1.17	0.922	1.11	0.613	0.627	0.694	0.603	0.349
HOP-62	0.663	0.718	0.677	–	0.61	0.699	0.57	0.682	–	0.36	0.899	1.02	0.93	0.794	0.814	0.774	0.728	0.709	0.632	0.225
H3255	0.342	0.354	0.392	0.366	0.375	–	0.761	0.698	0.396	0.682	0.898	1.1	0.859	0.557	0.29	0.347	0.37	0.333	0.259	0.259
NCI-H1734	0.449	0.392	0.367	0.363	0.315	0.865	0.727	0.877	0.554	0.541	0.179	0.0914	0.177	0.192	0.157	0.455	0.379	0.414	0.239	0.156
SK-MES-1	0.645	0.658	0.645	0.491	0.479	1.08	0.991	1.14	0.637	0.779	0.954	0.691	0.966	0.203	0.221	0.753	0.714	0.761	0.193	0.186
NCI-H1792	0.453	0.419	0.29	0.166	0.073	–	–	–	–	–	0.821	0.435	0.705	0.443	0.471	0.396	0.317	0.257	0.0806	0.154
EKVX	0.278	0.21	0.235	0.216	0.224	0.753	0.785	0.798	0.481	0.496	0.837	0.875	0.937	0.829	0.563	0.24	0.244	0.243	0.238	0.152
EPLC-272H	0.369	0.335	–	–	0.312	0.533	0.383	0.548	0.297	0.484	0.215	0.326	0.25	0.196	0.234	0.317	0.283	0.262	0.217	0.145
LK-2	0.41	0.498	0.515	0.201	0.187	0.237	0.335	0.178	0.275	0.176	0.186	0.174	0.226	0.224	0.202	0.377	0.475	0.4	0.318	0.291
CAL-12T	0.573	0.573	0.619	0.528	0.558	0.69	0.744	0.727	0.524	0.569	0.318	0.394	0.688	0.379	0.236	0.515	0.57	0.592	0.139	0.172
NCI-H322M	0.832	0.765	0.814	0.545	0.552	0.912	0.927	0.953	1	0.623	0.992	0.888	0.729	0.612	0.58	0.874	0.891	0.82	0.39	0.389
NCI-H1650	0.477	0.406	0.489	0.272	0.254	0.51	0.505	0.621	0.386	0.377	0.182	0.185	0.217	0.181	0.198	0.512	0.467	0.407	0.182	0.305
NCI-H1648	–	–	–	–	–	0.605	0.412	0.551	0.211	0.57	–	–	–	–	–	–	–	–	–	–
SW 1573	0.359	0.335	0.311	0.244	0.203	0.934	0.575	0.786	0.26	0.518	0.234	0.198	0.13	0.151	0.148	0.373	0.369	0.426	0.145	0.141
NCI-H2405	0.406	0.446	0.384	0.377	0.292	1.04	0.907	0.973	0.698	0.487	0.651	0.733	0.677	0.637	0.52	0.41	0.408	0.705	0.361	0.289
LCLC-103H	0.397	0.344	0.324	0.327	0.303	0.775	0.68	0.836	0.429	0.605	0.95	1.08	1.08	0.752	0.785	0.34	0.389	0.366	0.293	0.269
HCC-44	0.181	0.232	0.174	0.143	0.136	1.02	1.01	1.03	0.734	1.01	1.25	1.07	1.02	1.1	0.555	0.252	0.175	0.146	0.1	0.0891

Cell Line	relative viability (Linsitinib + Phenformin; first compound 0.01 µM)	relative viability (Linsitinib + Phenformin; first compound 0.03162 µM)	relative viability (Linsitinib + Phenformin; first compound 0.1 µM)	relative viability (Linsitinib + Phenformin; first compound 0.3162 µM)	relative viability (Linsitinib + Phenformin; first compound 1 µM)	relative viability (Linsitinib + Vorinostat; first compound 0.01 µM)	relative viability (Linsitinib + Vorinostat; first compound 0.03162 µM)	relative viability (Linsitinib + Vorinostat; first compound 0.1 µM)	relative viability (Linsitinib + Vorinostat; first compound 0.3162 µM)	relative viability (Linsitinib + Vorinostat; first compound 1 µM)	relative viability (Ispinesib + Luminespib; first compound 0.001 µM)	relative viability (Ispinesib + Luminespib; first compound 0.003162 µM)	relative viability (Ispinesib + Luminespib; first compound 0.01 µM)	relative viability (Ispinesib + Luminespib; first compound 0.03162 µM)	relative viability (Ispinesib + Luminespib; first compound 0.1 µM)	relative viability (Ispinesib + Phenformin; first compound 0.001 µM)	relative viability (Ispinesib + Phenformin; first compound 0.003162 µM)	relative viability (Ispinesib + Phenformin; first compound 0.01 µM)	relative viability (Ispinesib + Phenformin; first compound 0.03162 µM)	relative viability (Ispinesib + Phenformin; first compound 0.1 µM)
RERF-LC-KJ	0.408	0.368	0.463	0.425	0.409	0.552	0.608	0.649	0.293	0.455	1.49	1.2	0.958	0.259	0.442	0.422	0.365	0.33	0.217	0.253
NCI-H1975	0.396	0.417	0.413	0.38	0.396	0.752	0.614	0.748	0.575	0.632	0.231	0.217	0.21	0.351	0.198	0.448	0.412	0.458	0.164	0.11
IA-LM	–	–	–	–	–	0.975	0.829	1.06	0.315	0.499	–	–	–	–	–	–	–	–	–	–
LCLC-97TM1	0.41	0.432	0.43	0.194	0.205	0.756	0.711	0.674	0.103	0.191	0.781	0.765	0.886	0.807	0.487	0.356	0.435	0.486	0.336	0.129
NCI-H520	0.567	0.53	0.607	–	0.547	0.802	0.689	0.722	–	0.695	0.24	0.17	0.207	0.206	0.204	0.535	0.571	0.382	0.251	0.222
A-427	0.383	0.321	0.301	–	0.233	0.859	0.905	0.892	–	0.808	1	1.11	1.33	0.352	0.389	0.377	0.415	0.333	0.168	0.158
ABC-1	0.241	0.209	0.238	0.237	0.233	1.4	1.2	0.97	0.803	0.796	–	0.598	0.613	0.369	0.469	0.278	0.223	0.289	0.197	0.226
NCI-H460	0.511	0.44	0.521	0.394	0.342	0.694	0.644	0.692	–	0.601	0.022	0.0333	0.0413	0.0267	0.0268	0.557	0.579	0.559	0.0429	0.032
NCI-H1395	0.442	0.462	0.454	0.468	0.423	0.671	–	0.821	0.68	0.644	0.793	0.769	0.817	0.655	0.447	0.491	0.487	0.514	0.354	0.292
NCI-H23	0.821	0.863	0.764	0.53	0.503	0.633	0.327	0.765	0.174	0.303	0.205	0.202	0.199	0.195	0.197	0.921	0.752	0.795	0.61	0.171
LOU-NH91	0.739	0.714	0.722	0.651	0.632	0.983	0.817	0.914	0.735	0.76	0.332	0.311	0.394	0.25	0.297	0.708	0.753	0.774	0.563	0.262
NCI-H2009	0.479	0.47	0.434	–	0.367	0.725	0.699	0.796	0.58	0.669	1.12	1.13	1.19	0.769	0.251	0.519	0.512	0.451	0.312	0.186
NCI-H358	0.304	0.273	0.306	0.228	0.207	0.74	0.564	0.812	0.55	0.368	0.424	0.435	0.549	0.405	0.259	0.391	0.351	0.266	0.102	0.0986
A549	0.2	0.264	0.173	0.0926	0.151	–	–	–	–	–	–	–	–	–	–	0.12	0.18	0.899	0.0923	0.048
NCI-H1563	0.68	0.647	0.658	0.834	0.621	–	–	–	–	–	0.506	0.462	0.523	0.523	0.55	0.663	0.685	0.696	0.63	0.54
HCC-366	0.612	0.604	0.598	0.574	0.377	0.41	0.328	0.324	0.218	0.0911	–	–	–	–	–	0.635	0.633	0.657	0.692	0.0242
NCI-H1623	0.628	0.618	0.581	–	0.519	–	–	–	–	–	0.638	0.487	0.578	0.526	0.455	0.587	0.597	0.617	0.563	0.396
HCC-78	0.551	0.717	0.565	0.701	0.621	–	0.47	0.462	0.402	0.315	–	–	–	–	–	0.738	0.896	0.743	0.51	0.543
